Non-standard residues stand in square brackets, D forms with d. Residues, ends and D or L forms follow the SMILES beside them. ξ: configuration not given here. *: point of attachment. ξF = NC(Cc1ccccc1)C(=O)O; Cbz = O=C(OCc1ccccc1)*
Experiment: method code SF, from Hansch, C. & Leo, A. (1987). Log P database [Dataset]. Pomona College Medicinal Chemistry Project.

In order of falling logP:
1. CC(C)CC(CC(C)C)OC(=O)c1ccc(NC(=O)N(C)C)cc1Cl  5.15
2. O=C(CCc1ccccc1)Nc1ccc(Cl)c(Cl)c1  4.85
3. CCCC(C(=O)OCCN(CC)CC)(c1ccccc1)c1ccccc1  4.65
4. CCOP(=S)(OCC)Oc1ccc(SC)cc1Cl  4.4
5. CSC(=O)Nc1ccc(Cl)c(Cl)c1  4.23
6. CCC(C)NC(=O)C=C(c1ccc(Cl)cc1)C(C)C (centres undefined)  4.03
7. CN(C)/N=N/c1cccc(C(F)(F)F)c1  3.78
8. Nc1ccc(C2CCCCC2)cc1  3.65
9. CCCCC1OC(=O)c2cc(Cl)ccc21 (centres undefined)  3.53
10. CCOP(=O)(OCC)Oc1ccc(SC)c(Cl)c1  3.48
11. CCOC(=O)C(=Cc1cccc(OCC)c1)C(=O)OCC  3.39
12. CC(=O)Nc1ccc(CN(C)/N=N/c2ccc(C(=O)O)cc2)cc1  3.35
13. CCC(C)c1ccccc1OCC(=O)O (centres undefined)  3.32
14. CCC(C)c1ccccc1O (centres undefined)  3.27
15. CCOC(=O)CON=Cc1ccc(OCCOC(=O)c2cc(OC)c(OC)c(OC)c2)c(OC)c1  3.26
16. CCCOc1ccccc1  3.18
17. CC[C@H]1OC(=O)[C@H](C)[C@@H](OC2CC(C)(OC)C(O)C(C)O2)C(C)[C@@H](OC2OC(C)CC(N(C)C)C2O)[C@](C)(O)C[C@@H](C)C(=O)[C@H](C)[C@@H](O)[C@H]1C (some centres undefined)  3.12
18. CC(C)[C@H](NC(=O)C(Cc1ccccc1)NC(=O)OCc1ccccc1)C(=O)O (some centres undefined) (Cbz-[ξF]-Val-OH)  2.88
19. CCC(C)NC(=O)C(=Cc1ccccc1)OC (centres undefined)  2.86
20. COc1ccc(CN(CCN(C)C)c2ccccn2)cc1  2.85
21. c1ccc2nc3ccccc3nc2c1  2.84
22. CCCCC1OC(=O)c2ccccc21 (centres undefined)  2.8
23. Cc1nnc2n1-c1sc(Br)cc1C(c1ccccc1Cl)=NC2  2.79
24. CC(=O)c1csc2ccccc12  2.78
25. COc1ccc(/N=N/N(C)C(C)=O)cc1  2.61
26. CCCCC(=O)Nc1ccccc1  2.61
27. Nc1cccc2nc3ccccc3cc12  2.47
28. O=Cc1cccc(C(F)(F)F)c1  2.47
29. CC(C)C(NC(=O)OCc1ccccc1)C(=O)NC(Cc1ccc(O)cc1)C(=O)O (stereo not drawn) (Cbz-Val-Tyr-OH; configuration not given here)  2.43
30. O=C(OC(=O)c1ccccc1)c1ccccc1  2.26
31. CCOC(=O)C(=Cc1ccccc1)C(C)=O  2.21
32. Cc1ccccc1C#N  2.21
33. C=C(C)CC1(CC)C(=O)NC(=S)NC1=O  2.19
34. COc1cc(C=NO)ccc1O  2.16
35. O=C(c1ccccc1)C(F)(F)F  2.15
36. CC1(C)Cc2cccc(O)c2O1  2.08
37. O=S(=O)(Cc1ccccc1)c1ccccc1  2.05
38. CC(=O)c1ccccc1O  1.88
39. O=[N+]([O-])c1cccc2ncccc12  1.86
40. O=C(O)Cc1ccc(S(=O)(=O)F)cc1  1.86
41. O=C(O)COc1ccc(S(=O)(=O)F)cc1  1.82
42. CC(=O)Oc1cccc([N+](=O)[O-])c1  1.82
43. CC(=NO)c1ccsc1  1.81
44. O=c1[nH]c2ccccc2s1  1.76
45. CC(C(=O)N(C)c1ccc(S(=O)(=O)N(C)C)cc1)c1ccccc1 (centres undefined)  1.73
46. O=[N+]([O-])c1ccc2[nH]c(CCCc3nc4cc([N+](=O)[O-])ccc4[nH]3)nc2c1  1.62
47. FC(Cl)Cl  1.55
48. O=C(O)c1ccsc1  1.5
49. CCC1OC(=O)C(C)C(OC2CC(C)(O)C(C)O2)C(C)C(OC2OC(C)C(O)C(N(C)C)C2O)C(C)(O)CC(C)C(=O)C(C)C(O)C1(C)O (centres undefined)  1.44
50. CC(=O)Nc1ccccc1Br  1.4
51. O=C(N[C@H](CO)[C@H](O)c1ccc(-c2ccccn2)cc1)C(F)(F)F  1.31
52. O=C(C(=O)c1ccco1)c1ccco1  1.24
53. COP(=O)(OC)Oc1ccccc1  1.22
54. O=[N+]([O-])c1ccc(CCO)cc1  1.12
55. O=S1(=O)Nc2ccccc2N1  1.12
56. COc1cccc(C(=O)N(C)C)c1  1
57. COC1OC(=O)c2ccccc21 (centres undefined)  1
58. CC(=O)c1ccc[nH]1  0.93
59. OCc1cccs1  0.87
60. CC1=Nc2c([N+](=O)[O-])cc(Cl)cc2S(=O)(=O)N1  0.85
61. CC(=O)N[C@@H]1CC(=O)N(c2ccc(Cl)cc2)C1=O  0.75
62. Cc1cc(C)ncn1  0.62
63. O=C1OC(O)c2ccccc21 (centres undefined)  0.57
64. CC(=O)Nc1cc2c(cc1Cl)S(=O)(=O)NC(C)=N2  0.53
65. CC(=O)Nc1cccc(NC(C)=O)c1  0.5
66. CCCCNC(N)=O  0.41
67. CC(=O)CCN(C)c1ccc(S(=O)(=O)N(C)C)cc1  0.23
68. c1cocn1  0.12
69. CC1CO1 (centres undefined)  0.03
70. O=c1[nH]cc(Br)c(=O)[nH]1  -0.21
71. CN1CCOCC1  -0.33
72. Nc1nc(O)c2nc[nH]c2n1  -0.91
73. Nc1ccc2ccccc2c1S(=O)(=O)O  -1.16
74. CC(=O)NO  -1.59

From the SangsterLogP compilation
